Read-outs that look alike come from different tables or passages of the source.

3 compounds from patent US10597388B2, “Pyridazinone herbicides” (FMC CORPORATION, priority 2014, dated 2020) can be followed below.

Type in all cases: in vivo
Assay [1] concerns barnyardgrass (Echinochloa crus-galli). Put plainly: Test A greenhouse herbicide test, pre- and postemergence. The note with it: Echinochloa crus-galli, 240 h, 1000 g ai/ha, 0 to 100 scale. In a few lines:
(§1)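 Seeds sown in loam–sand blend got a preemergence directed soil spray of compound in non-phytotoxic solvent with surfactant. Postemergence treatment was given at 2–10 cm, one- to two-leaf stage. After ~10 d in greenhouse, injury was rated visually vs untreated controls, 0 (no effect) to 100 (complete control).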

The next assay concerns corn (Zea mays). Described as above. The following applies: Zea mays, 240 h, 1000 g ai/ha, 0 to 100 scale. An outline of the steps:
as §1

The subject of assay [2] is crabgrass, large (large crabgrass, Digitaria sanguinalis). The assay is described as above. The following applies: 240 h, 1000 g ai/ha, 0 to 100 scale. An outline of the steps:
as §1

Assay [3] has as its system foxtail, giant (giant foxtail, Setaria faberii). The assay is described as above. The note with it: Setaria faberi, 240 h, 1000 g ai/ha, 0 to 100 scale. An outline of the steps: as §1
The subject of assay [4] is momingglory (Ipomoea spp.). The assay is described as above. The note with it: 240 h, 1000 g ai/ha, 0 to 100 scale. In a few lines: as §1
In assay [5] the test system is pigweed (Amaranthus retroflexus). The assay is described as above. The following applies: Amaranthus retroflexus, 240 h, 1000 g ai/ha, 0 to 100 scale. An outline of the steps: as §1
For assay [6], the system named is velvetleaf (Abutilon theophrasti). Described as above. The note with it: 240 h, 1000 g ai/ha, 0 to 100 scale. An outline of the steps:
as §1

For assay [7], the system named is wheat (Triticum aestivum). Described as above. The note with it: Triticum aestivum, 240 h, 1000 g ai/ha, 0 to 100 scale. An outline of the steps: as §1
The test system of assay [8] is barnyardgrass (Echinochloa crus-galli). Put plainly: Test B flooded paddy test. The note with it: Echinochloa crus-galli, 360 h; 250 g ai/ha, Flood; visual rating on scale of 0 to 100 where 0 is no effect and 100 is complete control; 13 to 15 d after treatment; read-out: Plant response rating, Barnyardgrass. In a few lines:
(§2)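 Plants at the 2-leaf stage were flooded to 3 cm above soil, and test compounds were applied directly into the paddy water, which was held at that depth throughout. After 13 to 15 d in a greenhouse, injury was rated visually against untreated controls on a 0–100 scale (0 no effect, 100 complete control).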

Assay [9] concerns ducksalad (Heteranthera limosa). Kind of assay: Test B flooded paddy test. The following applies: Heteranthera limosa, 360 h; 250 g ai/ha, Flood; visual rating on scale of 0 to 100 where 0 is no effect and 100 is complete control; 13 to 15 d after treatment; read-out: Plant response rating, Ducksalad. An outline of the steps: as §2
A further assay relates to rice (Oryza sativa). Kind of assay: Test B flooded paddy test. The note with it: Oryza sativa, 360 h; 250 g ai/ha, Flood; visual rating on scale of 0 to 100 where 0 is no effect and 100 is complete control; 13 to 15 d after treatment; read-out: Plant response rating, Rice. In a few lines: as §2
Assay [10] deals with sedge, umbrella (small-flower umbrella sedge, Cyperus difformis). Kind of assay: Test B flooded paddy test. The following applies: Cyperus difformis, 360 h; 250 g ai/ha, Flood; visual rating on scale of 0 to 100 where 0 is no effect and 100 is complete control; 13 to 15 d after treatment; read-out: Plant response rating, Sedge, Umbrella. An outline of the steps:
as §2

The subject of assay [11] is ALOMY, blackgrass (Alopecurus myosuroides). Put plainly: Test F mixtures with commercial herbicides, Post- or Pre-emergence. The following applies: Post-emergence, scale 0-100. The protocol: (§3) This test evaluated the effect of mixtures of Compound 1 or Compound 2 with various commercial herbicides on multiple plant species. Seeds of multiple plant species selected were planted into Sandy Loam soil and treated either Post-emergence or Pre-emergence with test chemicals formulated in a non-phytotoxic solvent mixture. Plants were grown in a greenhouse using supplemental lighting to maintain a photoperiod of approximately 16 h; daytime and nighttime temperatures were approximately 24-30 and 19-21° C., respectively. Balanced fertilizer was applied through the watering system. Treated plants and controls were maintained in a greenhouse for 20 d, after which time all species were compared to controls and visually evaluated. Plant response ratings summarized in Tables F1 through F4 and are based on a scale of 0 to 100 where 0 is no effect and 100 is complete control. A dash (-) response means no test result. Application rates (i.e. “Rate”) are expressed in grams of active ingredient per hectare (g a.i./ha). In the following tables KCHSC is kochia (Kochia scoparia), LOLMU in Italian Ryegrass (Lolium multiflorum), AMBEL is common ragweed (Ambrosia elatior), ECHCG is barnyardgrass (Echinochloa crus-galli), SETVI is giant foxtail (Setaria faberii), AMARE is redroot pigweed (Amaranthus retroflexus), ALOMY is blackgrass (Alopecurus myosuroides) and GALAP is galium (Galium aparine). “Obsd.” is observed effect. “Exp.” is expected effect calculated from Colby's Equation.
(§4) Colby's Equation was used to determine the herbicidal effects expected from the mixtures. Colby's Equation (Colby, S. R. “Calculating Synergistic and Antagonistic Responses of Herbicide Combinations,” Weeds, 15(1), pp 20-22 (1967)) calculates the expected additive effect of herbicidal mixtures, and for two active ingredients is of the form: Pa+b=Pa+Pb−(PaPb/100)
(§5) wherein Pa+b is the percentage effect of the mixture expected from additive contribution of the individual components:
(§6) Pa is the observed percentage effect of the first active ingredient at the same use rate as in the mixture, and
(§7) Pb is the observed percentage effect of the second active ingredient at the same use rate as in the mixture.

Assay [12] concerns AMARE, redroot pigweed (Amaranthus retroflexus). The description is as above. The protocol:
as §3, §4, §5, §6, §7

Assay [13] relates to AMBEL, common ragweed (Ambrosia elatior). The description is as above. As to the method: as §3, §4, §5, §6, §7
For assay [14], the system named is ECHCG, barnyardgrass (Echinochloa crus-galli). The description is as above. As to the method:
as §3, §4, §5, §6, §7

The test system of assay [15] is GALAP, galium (Galium aparine). The assay is described as above. The following applies: Post-emergence, scale 0-100. As to the method:
as §3, §4, §5, §6, §7

Assay [16] relates to KCHSC, kochia (Kochia scoparia). The assay is described as above. The protocol:
as §3, §4, §5, §6, §7

Assay [17] has as its system LOLMU, Italian Ryegrass (Lolium multiflorum). Described as above. As to the method:
as §3, §4, §5, §6, §7

Assay [18] has as its system SETVI, giant foxtail (Setaria faberii). The assay is described as above. The protocol: as §3, §4, §5, §6, §7
Setting [19] is: Pre-emergence, Rate 62 g a.i./ha, scale 0-100.
[20] abbreviates: Table F3, Post-emergence, Rate 62 g a.i./ha, scale 0-100.
Setting [21] is: Post-emergence, Rate 4 g a.i./ha, scale 0-100.
Setting [22] is: Post-emergence, Rate 16 g a.i./ha, scale 0-100.
[23] abbreviates: Pre-emergence, Rate 4 g a.i./ha, applied alone, 20 d, scale 0 to 100.
The mark [24] stands for this setting: Pre-emergence, Rate 16 g a.i./ha, applied alone, 20 d, scale 0 to 100.

Consider `Cc1ccc2oc(C)c(-c3c(O)c(C)nn(C)c3=O)c2c1` [Compound 7, 4-(2,5-dimethyl-3-benzofuranyl)-5-hydroxy-2,6-dimethyl-3(2H)-pyridazinone], for which the pest or weed control at 1000 g/ha in assay [1] (post-emergence, Postemergence, 0 is no effect, 100 is complete control, read-out: Barnyardgrass plant response rating) was found to be 90%; in assay [1] (pre-emergence, Preemergence, 0 no effect, 100 complete control, read-out: Plant response rating, Barnyardgrass), 100%; in assay [2] (post-emergence, Postemergence, 0 is no effect, 100 is complete control, read-out: Crabgrass, Large plant response rating), 50%; in [2] (pre-emergence, Preemergence, 0 no effect, 100 complete control, read-out: Plant response rating, Crabgrass, Large), 90%; in [3] (post-emergence, Postemergence, 0 is no effect, 100 is complete control, read-out: Foxtail, Giant plant response rating), 90%; in [3] (pre-emergence, Preemergence, 0 no effect, 100 complete control, read-out: Plant response rating, Foxtail, Giant), 90%. The pest or weed control at 1000 g/ha came to 100% in [4] (post-emergence, Postemergence, 0 is no effect, 100 is complete control, read-out: Morningglory plant response rating); 80% in assay [4] (pre-emergence, Preemergence, 0 no effect, 100 complete control, read-out: Plant response rating, Morningglory); 100% in assay [5] (post-emergence, Postemergence, 0 is no effect, 100 is complete control, read-out: Pigweed plant response rating); 100% in assay [5] (pre-emergence, Preemergence, 0 no effect, 100 complete control, read-out: Plant response rating, Pigweed); 100% in assay [6] (post-emergence, Postemergence, 0 is no effect, 100 is complete control, read-out: Velvetleaf plant response rating); 80% in assay [6] (pre-emergence, Preemergence, 0 no effect, 100 complete control, read-out: Plant response rating, Velvetleaf). Moreover, the plant injury at 1000 g/ha was 10% in the assay with corn (Zea mays) (post-emergence, Postemergence, 0 is no effect, 100 is complete control, read-out: Corn plant response rating); 20% in assay [7] (post-emergence, Postemergence, 0 is no effect, 100 is complete control, read-out: Wheat plant response rating); 0% in [7] (pre-emergence, Preemergence, 0 no effect, 100 complete control, read-out: Plant response rating, Wheat). In the assay on corn (Zea mays) (pre-emergence, Preemergence, 0 no effect, 100 complete control), this compound returned a Corn plant response rating (crop injury, 0 = no effect, 100 = complete kill) at 1000 g/ha of 30%. Also, the pest or weed control at 250 g/ha in [8] stood at 20%; in assay [9], 60%; in assay [10], 60%. Moreover, the plant injury at 250 g/ha in the assay with rice (Oryza sativa) was determined as 0%.
For the compound `CCNc1nc(Cl)nc(NC(C)C)n1` [atrazine], the “ALOMY Obsd.” value in assay [11] (Table F3, Rate 62 g a.i./ha) worked out at 60. Besides, the figures for the “AMARE Obsd.” value in [12] (setting [19]) and in assay [12] (setting [20]) were 85 and 75, respectively. In addition, the “AMBEL Obsd.” value in assay [13] (setting [19]) and in [13] (setting [20]) was 10 each time. Besides, the “ECHCG Obsd.” value in [14] (setting [19]) is given as 0; in [14] (setting [20]) it was 20. In addition, the “GALAP Obsd.” value in [15] (Table F3, Rate 62 g a.i./ha) amounted to 50. In addition, the “KCHSC Obsd.” value in assay [16] (setting [19]) and in assay [16] (setting [20]) was 100 in each case. For the same compound, the “LOLMU Obsd.” value in assay [17] (setting [19]) is on record as 100; in assay [17] (setting [20]), 15. Besides, the “SETVI Obsd.” value in assay [18] (setting [19]) and in assay [18] (setting [20]) was 5 throughout.
Consider `CS(=O)(=O)c1ccc(C(=O)C2C(=O)CCCC2=O)c([N+](=O)[O-])c1` [mesotrione], for which the “ALOMY Obsd.” value in [11] (Rate 4 g a.i./ha) and in [11] (Rate 16 g a.i./ha) was 0.0 each time. For the same compound, the “AMARE Obsd.” value was found to be 0.0 in assay [12] (setting [21]), 30.0 in [12] (setting [22]), 0 in assay [12] (setting [23]) and 20 in assay [12] (setting [24]). Also, the “AMBEL Obsd.” value in assay [13] (setting [21]) worked out at 0.0; in assay [13] (setting [22]), 75.0; in assay [13] (setting [23]), 0; in assay [13] (setting [24]), 30. In addition, the “ECHCG Obsd.” value came to 0.0 in [14] (setting [21]), 20.0 in [14] (setting [22]), 0 in assay [14] (setting [23]) and 0 in assay [14] (setting [24]). In addition, the “GALAP Obsd.” value in [15] (Rate 4 g a.i./ha) amounted to 0.0; in assay [15] (Rate 16 g a.i./ha) it was 35.0. The “KCHSC Obsd.” value is given as 0.0 in [16] (setting [21]), 90.0 in assay [16] (setting [22]), 0 in assay [16] (setting [23]) and 50 in assay [16] (setting [24]). Besides, the “LOLMU Obsd.” value in assay [17] (setting [21]) was 0.0; in assay [17] (setting [22]), 0.0; in [17] (setting [23]), 0; in [17] (setting [24]) it was 0. For the same compound, the “SETVI Obsd.” value in [18] (setting [21]) came out at 0.0; in [18] (setting [22]), 0.0; in assay [18] (setting [23]), 0; in assay [18] (setting [24]) it was 0.
